According to US11304949B2, “Treatment of hidradenitis suppurativa using JAK inhibitors” (Incyte Corporation, priority 2018, dated 2022):

Key:
[1] = test system: Transformed human keratinocyte (HaCaT) cells stimulated with TNFα and IFNγ; test: JAK inhibitors in TNFα/IFNγ stimulated keratinocytes, inflammatory mediators in media (ProCarta Multiplex Immunoassay); conditions: mean ± 1 standard error
[2] = target: human JAK1 (a.a. 837-1142) (Homo sapiens, UniProt P23458); test: In vitro JAK kinase assay (HTRF), JAK1; type: biochemical; conditions: 1 mM ATP
[3] = test system: human JAK1 (a.a. 837-1142); test: In vitro JAK kinase assay (HTRF), JAK1; type: biochemical; conditions: IC50 ratio at 1 mM ATP
[4] = test system: Transformed human keratinocyte (HaCaT) cells stimulated with TNFα and IFNγ; test: JAK inhibitors in TNFα/IFNγ stimulated keratinocytes, gene expression (QuantiGene Plex); conditions: 24 hours, normalized to HPRT1, mean ± standard error
[5] = TNFα (25 ng/mL) and IFNγ (25 ng/mL) stimulation, drug 25 nM
[6] = TNFα (25 ng/mL) and IFNγ (25 ng/mL) stimulation, drug 50 nM
[7] = TNFα (25 ng/mL) and IFNγ (25 ng/mL) stimulation, drug 100 nM
[8] = TNFα (25 ng/mL) and IFNγ (25 ng/mL) stimulation, drug 200 nM
[9] = TNFα (25 ng/mL) and IFNγ (25 ng/mL), drug 25 nM
[10] = TNFα (25 ng/mL) and IFNγ (25 ng/mL), drug 50 nM
[11] = TNFα (25 ng/mL) and IFNγ (25 ng/mL), drug 100 nM
[12] = TNFα (25 ng/mL) and IFNγ (25 ng/mL), drug 200 nM

N#CCC1(n2cc(-c3ncnc4[nH]ccc34)cn2)CN(C2CCN(C(=O)c3ccnc(C(F)(F)F)c3F)CC2)C1 [Compound 1, {1-{1-[3-Fluoro-2-(trifluoromethyl)isonicotinoyl]piperidin-4-yl}-3-[4-(7H-pyrrolo[2,3-d]pyrimidin-4-yl)-1H-pyrazol-1-yl]azetidin-3-yl}acetonitrile]
IL-1α concentration in media [1, 5]: 7.34 ± 0.31 pg/mL
IL-6 concentration in media [1, 5]: 749.64 ± 32.94 pg/mL
IP-10/CXCL10 concentration in media [1, 5]: 4068.98 ± 507.12 pg/mL
MIP1α concentration in media [1, 5]: 103.81 ± 3.29 pg/mL
RANTES concentration in media [1, 5]: 203.77 ± 12.55 pg/mL
IL-1α concentration in media [1, 6]: 7.06 ± 0.37 pg/mL
IL-6 concentration in media [1, 6]: 674.21 ± 27.15 pg/mL
IP-10/CXCL10 concentration in media [1, 6]: 3872.74 ± 295.01 pg/mL
MIP1α concentration in media [1, 6]: 100.64 ± 4.66 pg/mL
RANTES concentration in media [1, 6]: 198.35 ± 15.1 pg/mL
IL-1α concentration in media [1, 7]: 7 ± 0.41 pg/mL
IL-6 concentration in media [1, 7]: 643.8 ± 27.14 pg/mL
IP-10/CXCL10 concentration in media [1, 7]: 4050.7 ± 471.31 pg/mL
MIP1α concentration in media [1, 7]: 91.52 ± 5.05 pg/mL
RANTES concentration in media [1, 7]: 194.21 ± 12.67 pg/mL
IL-1α concentration in media [1, 8]: 6.16 ± 0.35 pg/mL
IL-6 concentration in media [1, 8]: 568.73 ± 24.74 pg/mL
IP-10/CXCL10 concentration in media [1, 8]: 4071.78 ± 411.22 pg/mL
MIP1α concentration in media [1, 8]: 83.1 ± 2.77 pg/mL
RANTES concentration in media [1, 8]: 183.18 ± 13.92 pg/mL
IL-1α concentration in media ([1]; no stimulation, drug 200 nM): 0.29 ± 0.03 pg/mL
IL-6 concentration in media ([1]; no stimulation, drug 200 nM): 28.49 ± 2.89 pg/mL
IP-10/CXCL10 concentration in media ([1]; no stimulation, drug 200 nM): 19.83 ± 0.40 pg/mL
MIP1α concentration in media ([1]; no stimulation, drug 200 nM): 2.75 ± 0.26 pg/mL
RANTES concentration in media ([1]; no stimulation, drug 200 nM): 8.42 ± 0.51 pg/mL
IC50 [2]: < 10 nM
JAK2/JAK1 [3]: >10
IL-1α MFI [4, 9]: 1288.02 ± 20
IL-6 MFI [4, 9]: 130.24 ± 3.84
JAK1 MFI [4, 9]: 216.23 ± 6.41
JAK2 MFI [4, 9]: 109.39 ± 2.8
JAK3 MFI [4, 9]: 0.84 ± 0.12
STAT1 MFI [4, 9]: 2868.69 ± 202.69
STAT3 MFI [4, 9]: 1466.73 ± 66.75
STAT4 MFI [4, 9]: 6.00 ± 0.46
STAT5A MFI [4, 9]: 23.69 ± 1.63
STAT6 MFI [4, 9]: 1004.82 ± 23.76
TYK2 MFI [4, 9]: 292.92 ± 7.99
IL-1α MFI [4, 10]: 1258.76 ± 23.63
IL-6 MFI [4, 10]: 122.69 ± 4.36
JAK1 MFI [4, 10]: 210.42 ± 10.89
JAK2 MFI [4, 10]: 101 ± 2.26
JAK3 MFI [4, 10]: 0.83 ± 0.15
STAT1 MFI [4, 10]: 2862.58 ± 163.98
STAT3 MFI [4, 10]: 1437.28 ± 60.69
STAT4 MFI [4, 10]: 6.22 ± 0.42
STAT5A MFI [4, 10]: 22.32 ± 2.16
STAT6 MFI [4, 10]: 990.05 ± 21.06
TYK2 MFI [4, 10]: 287.31 ± 11.08
IL-1α MFI [4, 11]: 1162.35 ± 23.34
IL-6 MFI [4, 11]: 111.07 ± 4.74
JAK1 MFI [4, 11]: 205.03 ± 11.49
JAK2 MFI [4, 11]: 94.5 ± 2.65
JAK3 MFI [4, 11]: 0.92 ± 0.13
STAT1 MFI [4, 11]: 2790.32 ± 176.4
STAT3 MFI [4, 11]: 1373.34 ± 55.51
STAT4 MFI [4, 11]: 6.21 ± 0.48
STAT5A MFI [4, 11]: 20.87 ± 2.1
STAT6 MFI [4, 11]: 987.64 ± 15.75
TYK2 MFI [4, 11]: 284.15 ± 9.62
IL-1α MFI [4, 12]: 1126.94 ± 26.22
IL-6 MFI [4, 12]: 93.03 ± 3.25
JAK1 MFI [4, 12]: 195.97 ± 10.45
JAK2 MFI [4, 12]: 89.16 ± 3.43
JAK3 MFI [4, 12]: 0.79 ± 0.15
STAT1 MFI [4, 12]: 2857.2 ± 174.57
STAT3 MFI [4, 12]: 1400.77 ± 58.44
STAT4 MFI [4, 12]: 6.27 ± 0.56
STAT5A MFI [4, 12]: 19.2 ± 1.94
STAT6 MFI [4, 12]: 985.17 ± 29.31
TYK2 MFI [4, 12]: 277.52 ± 8.67
IL-1α MFI ([4]; no stimulation, drug 200 nM): 85.16 ± 6.50
IL-6 MFI ([4]; no stimulation, drug 200 nM): 4.97 ± 0.36
JAK1 MFI ([4]; no stimulation, drug 200 nM): 171.53 ± 9.49
JAK2 MFI ([4]; no stimulation, drug 200 nM): 25.21 ± 1.12
JAK3 MFI ([4]; no stimulation, drug 200 nM): 0.63 ± 0.10
STAT1 MFI ([4]; no stimulation, drug 200 nM): 535.07 ± 22.13
STAT3 MFI ([4]; no stimulation, drug 200 nM): 732.19 ± 23.03
STAT4 MFI ([4]; no stimulation, drug 200 nM): 4.01 ± 0.45
STAT5A MFI ([4]; no stimulation, drug 200 nM): 1.44 ± 0.41
STAT6 MFI ([4]; no stimulation, drug 200 nM): 740.11 ± 34.98
TYK2 MFI ([4]; no stimulation, drug 200 nM): 217.28 ± 10.09
